Legend:
[1] = tested on: mouse insulinoma cell line Min6; experiment: Glucose Dependent Insulin Secretion (GDIS) assay in Min6 cells; assay type: cell-based
Procedure: Because activation of GPR40 is known to result in insulin secretion, which is dependent on high glucose concentrations, two separate assay systems (an insulinoma cell line and primary rodent islets) are developed to further characterize compounds that are known to increase intracellular calcium in the GPR40 primary assay discussed above.
GDIS assays are performed using the mouse insulinoma cell line Min6. […] On the day of the experiment, the cells are washed twice with 200 μl of pre-warmed Krebs-ringer buffer without glucose. Addition of 200 μL of pre-warmed Krebs-ringer buffer containing 2.5 mM glucose is used to starve the cells followed by the addition of compounds in the presence of a high concentration of glucose (25 mM). The plate is incubated at 37° C. for 2 hours. At the end of the 2 h incubation, the supernatant is gently transferred into a Millipore filter plate and spun at 200 g (gravitational force) for 3 minutes. Insulin is assayed using a Mercodia Insulin estimation kit.

PPARα = molecular target: T1, PPARα (Homo sapiens, UniProt Q07869); experiment: PPARα binding assay (SPA)
T1 construct: made in house; host or cells: HEK293 (cell lysates)
T1 sequence (Q07869 1-468): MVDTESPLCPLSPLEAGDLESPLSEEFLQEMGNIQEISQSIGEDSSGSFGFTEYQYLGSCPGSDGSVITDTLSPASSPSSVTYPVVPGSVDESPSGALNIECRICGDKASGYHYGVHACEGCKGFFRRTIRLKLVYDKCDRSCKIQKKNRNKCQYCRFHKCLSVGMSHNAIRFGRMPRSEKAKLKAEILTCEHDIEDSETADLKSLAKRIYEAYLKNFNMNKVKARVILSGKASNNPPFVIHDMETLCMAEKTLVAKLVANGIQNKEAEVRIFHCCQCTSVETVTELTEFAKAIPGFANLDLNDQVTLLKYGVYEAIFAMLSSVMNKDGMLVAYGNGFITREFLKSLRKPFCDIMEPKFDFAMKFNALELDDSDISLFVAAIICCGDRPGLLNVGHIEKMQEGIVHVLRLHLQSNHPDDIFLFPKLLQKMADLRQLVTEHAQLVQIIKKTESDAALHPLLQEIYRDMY
T1 sequence (P19793 1-462 partner): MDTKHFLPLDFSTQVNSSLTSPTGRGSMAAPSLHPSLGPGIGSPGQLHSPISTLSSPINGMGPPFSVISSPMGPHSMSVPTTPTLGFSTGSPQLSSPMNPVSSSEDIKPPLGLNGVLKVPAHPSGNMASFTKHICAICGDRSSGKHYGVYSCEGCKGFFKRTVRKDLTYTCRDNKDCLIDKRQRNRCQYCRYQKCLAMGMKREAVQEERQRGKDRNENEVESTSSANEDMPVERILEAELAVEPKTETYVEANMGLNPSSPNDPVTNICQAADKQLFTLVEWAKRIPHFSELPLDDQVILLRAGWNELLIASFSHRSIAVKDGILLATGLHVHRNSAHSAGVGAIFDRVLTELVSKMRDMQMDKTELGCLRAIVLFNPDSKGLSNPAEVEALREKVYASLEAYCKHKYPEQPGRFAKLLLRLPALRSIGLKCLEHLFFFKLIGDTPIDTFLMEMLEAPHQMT
Procedure: Because GPR40 is known to be activated by ligands to PPARγ, the exemplified compound is examined in PPARα, PPARδ, and PPARγ binding and functional assays to determine the selectivity of the compound of Example 1 for GPR40.
Binding affinities of the compound for the PPAR α, δ, and γ receptors are assessed using Scintillation Proximity Assay (SPA) technology. Biotinylated oligonucleotide Direct Repeat 2 (DR2) is used for binding the receptors to Yttrium silicate streptavidin-coated SPA beads. PPAR α, δ, γ and retinoid X receptor (RXR) α are over expressed in HEK293 cells, and cell lysates containing the specific receptors are used in the individual assays. The DR2 is attached to the SPA beads over a 30 minute period in a binding buffer containing 10 mM HEPES pH 7.8, 80 mM KCl, 0.5 mM MgCl2, 1 mM DTT, 0.5% 3[(3-cholamidopropyl)dimethylammonio]-propanesulfonic acid (CHAPS), and 4.4% bovine serum. […] Non-specific binding is determined in the presence of 10,000 nM of the unlabeled PPAR α/δ dual agonist reference compound for the alpha and delta receptor assays and the PPARγ agonist reference compound for the gamma receptor assay. The binding reaction (100 μl per well in a 96 well [Costar 3632] plate) is incubated for 10 h and counted disintegration per minutes (dpm) on a Wallac Microbeta. Receptor binding affinity (IC50) for the compound is determined by fitting an 11 point concentration-response curve with a 4-parameter logistic equation. Ki is determined from the IC50 using the Cheng-Prussoff equation and Kd determined by saturation binding. […]

With `CC#C[C@@H](CC(=O)O)c1ccc(OCc2ccc(CN3CCCc4cccc(OC)c43)s2)cc1` [Example 1, (3S)-3-[4-[[5-[(8-Methoxy-3,4-dihydro-2H-quinolin-1-yl)methyl]-2-thienyl]methoxy]phenyl]hex-4-ynoic acid] the “increase in insulin secretion” value ([1]; 1.0 μM plus 25 mM glucose, fold over 25 mM glucose, 2 h, P<0.01) was 2.68 fold, the “insulin secretion, dose response” value ([1]; 0.01, 0.1, 1.0 and 10.0 μM plus 25 mM glucose) was “dose dependent increase in insulin secretion” and the binding (PPARα; concentrations up to 10 μM) was “no binding is detected”. The IC50 (PPARα; tested up to 30 μM, read-out: relative IC50) was over 10 µM and the PPAR binding values (PPARα; with 10 μM concentrations of test compound) was “greater than 1000 nM”.

— patent publication US8431706B2, “1,2,3,4-tetrahydroqinoline derivative useful for the treatment of diabetes” (Eli Lilly and Company, priority 2011, dated 2013)
